In paper PMC5909342, “Increasing the bioactive space of peptide macrocycles by thioamide substitution” (Chemical Science, 2018):
Where two headings read alike, the source gives them in different places.

Columns and labels:
[1] = target: T1, αvβ3 integrin (Homo sapiens, UniProt P05106+P06756); test: Competitive solid-phase integrin binding assay (ELISA), vitronectin-αvβ3
T1 construct: purchased Millipore
Procedure: (§1) The initial structure was obtained by following a simulated annealing protocol. […] For the structure of 7-11 (including 9a-9d) explicit solvent box of H2O was used with periodic boundary conditions. A 2 ns restrained molecular dynamics run was then performed. The average conformation over the dynamics run was considered to be the final structure. Competitive solid-phase integrin binding assay The activity of peptide as integrin antagonist was assessed using solid phase integrin binding assay. Following buffers were prepared freshly. […] 96-well plate reader at 492 nm. […] Post-blocking and washing peptides were mixed with biotinylated vitronectin and this mixure was then incubated with coated plates for 2h at room temperature. […] After washing S6

[2] = target: T2, αvβ5 integrin (Homo sapiens, UniProt P06756+P18084); test: Competitive solid-phase integrin binding assay (ELISA), vitronectin-αvβ5; conditions: purified integrin, n = 5 ± SEM, read-out: In vitro IC50 αvβ5
T2 construct: purchased Millipore
Procedure: as §1

[3] = target: T3, α5β1 integrin (Homo sapiens, UniProt P05556+P08648); test: Competitive solid-phase integrin binding assay (ELISA), fibronectin-α5β1; conditions: purified integrin, n = 5 ± SEM, read-out: In vitro IC50 α5β1
T3 construct: purchased Millipore
Procedure: as §1, with “Binding” for “Post-blocking and washing peptides were mixed with biotinylated vitronectin and this mixure”, “visualized using TMB substrate.” for “then incubated with coated plates for 2h at room temperature.”, “S7” for “After washing S6”

[4] = target: T4, αIIbβ3 integrin (Homo sapiens, UniProt P05106+P08514); test: Competitive solid-phase integrin binding assay (ELISA), fibrinogen-αIIbβ3; conditions: purified integrin, n = 5 ± SEM, read-out: In vitro IC50 αIIbβ3
T4 construct: purchased Millipore
Procedure: The inhibitory potency of the peptides to block the association between the extracellular matrix and the integrins overexpressed on cell-surfaces was determined using an in vitro competitive solid phase binding assay.[25] We assessed the affinity of these peptides against the pro-angiogenic αvβ3, αvβ5 and α5β1 integrins, and their selectivity against their αIIbβ3 integrin, which plays an important role in platelet aggregation (Table 1).[26]
integrin was incubated for 1h at room temperature. After washing 1:250 diluted CD41b
antibody was incubated for 1h at room temperature. Anti-mouse IgG-peroxidase antibody
was used as secondary antibody. Binding was visualized using TMB substrate. […]

[5] = test system: αvβ5 expressing MDA-MB-231 breast cancer cells; test: Competitive cell-adhesion inhibition assay to vitronectin, MDA-MB-231; format: cell-based, human; conditions: n = 5 ± SEM, read-out: In cellulo IC50 MDA-MB-231
Procedure: To validate our in vitro data and determine the efficacy of the peptides against the pro-angiogenic integrins in a complex cellular milieu, we subjected the peptides to a competitive cell-adhesion assay (Table 1) utilizing MDA-MB-231 human breast cancer cells expressing αvβ5 integrins, and U-87 MG human glioblastoma cells expressing αvβ3, αvβ5 and α5β1 integrins.[27] […] On the other hand, we observed a remarkable correlation between the in vitro affinity of the thioamidated peptides against the purified integrins and their efficacy in cellulo (αvβ5 with MDA-MB-231, and αvβ3 and αvβ5 with U-87 MG). […]
(§2) Cell adhesion inhibition assay […]
(§3) incubated with 0.5% crystal violet for 15 min. Cells were then washed thoroughly with PBS buffer to remove excess of crystal violet. Finally dye was eluted out and dissolved using DMSO and quantification was done at 570 nm. […]
(§4) was dispensed and 5% FBS containing media was added. […]

[6] = test system: αvβ3, αvβ5 and α5β1 expressing U-87 MG glioblastoma cells; test: Competitive cell-adhesion inhibition assay to vitronectin, U-87 MG; format: cell-based, human; conditions: n = 5 ± SEM, read-out: In cellulo IC50 U-87 MG
Procedure: To validate our in vitro data and determine the efficacy of the peptides against the pro-angiogenic integrins in a complex cellular milieu, we subjected the peptides to a competitive cell-adhesion assay (Table 1) utilizing MDA-MB-231 human breast cancer cells expressing αvβ5 integrins, and U-87 MG human glioblastoma cells expressing αvβ3, αvβ5 and α5β1 integrins.[27] […]
as §2, §3, §4

[7] = Ex vivo serum stability assay; conditions: human serum ex vivo
[8] = competitive ELISA, purified integrin, n = 5 ± SEM, read-out: In vitro IC50 αvβ3
[9] = from experimental IC50, read-out: pIC50 against αvβ3, Table S22 (converted)

| SMILES | IC50 [1, 8] [nM] | IC50 [2] [nM] | IC50 [3] [nM] | IC50 [4] [µM] | IC50 [5] [nM] | IC50 [6] [nM] | IC50 [1, 9] [nM] | Fold difference in αvβ3 affinity ([1]; 9b versus 7 (differ only in chirality of Phe)) | Fold enhancement of affinity and efficacy in comparison to 9 ([1]; 9b versus 9, pro-angiogenic integrins) | Fraction of peptide intact at 72 h [7] |
| --- | --- | --- | --- | --- | --- | --- | --- | --- | --- | --- |
| CC(C)[C@@H]1NC(=S)[C@@H](Cc2ccccc2)NC(=O)[C@H](CC(=O)O)NC(=O)CNC(=O)[C@H](CCCNC(=N)N)NC1=O [Compound 7] | 372 ± 52 | 0.7 ± 0.2 | 1.3 ± 0.6 | > 10 | 4 ± 2 | 326 ± 97 | – | – | – | – |
| CC(C)[C@@H]1NC(=O)[C@@H](Cc2ccccc2)NC(=O)[C@H](CC(=O)O)NC(=O)CNC(=S)[C@H](CCCNC(=N)N)NC1=O [Compound 9] | > 100000 | > 10000 | 53 ± 42 | > 10 | > 100000 | > 100000 | > 100000 | – | – | – |
| CC(C)[C@@H]1NC(=O)[C@H](Cc2ccccc2)NC(=O)[C@@H](CC(=O)O)NC(=O)CNC(=O)[C@H](CCCNC(=N)N)NC1=S [Compound 9a] | – | – | – | – | 11 ± 9 | 40 ± 28 | – | – | – | – |
| CC(C)[C@@H]1NC(=S)[C@H](Cc2ccccc2)NC(=O)[C@H](CC(=O)O)NC(=O)CNC(=O)[C@H](CCCNC(=N)N)NC1=O [Compound 9b] | 0.2 ± 0.1 | 1.6 ± 0.3 | 2 ± 0.4 | > 100 | 1 ± 0.1 | 1.6 ± 0.6 | 0.2 | > 10^3 fold | ~10^5 fold | 1/4 |
| CC(C)[C@@H]1NC(=O)[C@H](Cc2ccccc2)NC(=S)[C@H](CC(=O)O)NC(=O)CNC(=O)[C@@H](CCCNC(=N)N)NC1=O [Compound 9c] | > 100000 | > 10000 | 461 ± 246 | > 100 | > 100000 | > 100000 | – | – | – | – |
| CC(C)[C@H]1NC(=O)[C@H](Cc2ccccc2)NC(=O)[C@H](CC(=O)O)NC(=S)CNC(=O)[C@H](CCCNC(=N)N)NC1=O [Compound 9d] | 584 ± 504 | > 10000 | 104 ± 95 | > 100 | > 100000 | > 100000 | – | – | – | – |
| CC(C)[C@@H]1NC(=O)[C@@H](Cc2ccccc2)NC(=O)[C@H](CC(=O)O)NC(=S)CNC(=O)[C@H](CCCNC(=N)N)NC1=O [Compound 10] | 252 ± 200 | > 100000 | > 100000 | > 100 | > 100000 | > 100000 | – | – | – | – |
| CC(C)[C@@H]1NC(=O)[C@@H](Cc2ccccc2)NC(=S)[C@H](CC(=O)O)NC(=O)CNC(=O)[C@H](CCCNC(=N)N)NC1=O [Compound 11] | 72 ± 63 | 1.3 ± 1 | 62 ± 45 | > 100 | 4.2 ± 4 | 96 ± 77 | – | – | – | 1/4 |
| CC(C)[C@@H]1NC(=O)[C@H](Cc2ccccc2)NC(=O)[C@H](CC(=O)O)NC(=O)CNC(=O)[C@H](CCCNC(=N)N)NC1=O [Compound 12, cyclo(RGDFV)] | – | – | – | – | > 100000 | > 100000 | – | – | – | – |
